The test system of series [1] is HCV genotype 1. Nature of the series: phase 2 study of genotype 1 treatment-naive patients, sustained virologic response. It counts as in vivo, human. The note with it: alisporivir 600 mg BID for one week, then 600 mg QD, 48 week treatment, combined with peg-IFNa2a. The source says:
The virological response parameters are: rapid virologic response at treatment week 4 (RVR 4) defined by undetectable serum HCV-RNA at treatment week 4; early virological response (EVR), defined by at least 2 log10 IU/mL reduction in HCV-RNA compared to baseline (partial EVR) or undetectable serum HCV-RNA (complete EVR) at treatment week 12; sustained virological response (SVR24), defined as absence of HCV-RNA from serum by a sensitive Polymerase Chain Reaction (PCR) assay 24 weeks following end of therapy or the HCV RNA is undetectable (by LOD) 24 weeks after end of treatment; End of Treatment Response (ETR): HCV RNA undetectable (by LOD) at treatment end (completed or prematurely discontinued).

The test system of series [2] is HCV genotype 1. Nature of the series: study of alisporivir in HCV Genotype 1 non responder patients, decline in HCV RNA. It counts as in vivo, human. The note with it: first week of treatment, with peg-IFNα2a plus RBV. Here is the method:
The efficacy of the therapy regimen may be monitored using standard protocols. Treatment may be followed by determinations of HCV in serum and measurement of serum ALT (alanine-aminotransferase) levels. For example, the patients may be assessed for the presence of HCV RNA in their plasma. HCV RNA (IU/mL) can be measured at regular intervals during the treatment, e.g., at Day 1 (pre-dose and 4, 8, and 12 hours post-dose) and pre-dose at Day 2, Day 3, Day 8, Day 15, Day 29, and at Week 12, Week 24, Week 36, Week 48, Week 72 (when applicable), and at follow up. In addition, the HCV strains in the patient can be sequenced and assessed for identification of mutations selecting for resistance.
In addition, study of the use of alisporivir in HCV Genotype 1 non responder patients addressed the utility of a 400 mg BID dose regimen versus the same total daily dose given once daily (800 mg QD) during the first week of treatment, both with peg-IFNα2a plus RBV, and the possible relationships between Cmax, AUC, or Cmin and antiviral effect at the end of that treatment period. In this hard to treat patient population, the 400 mg BID dose provided greater decline in HCV RNA from baseline (−1.41 log10 IU/m1) than the 800 mg QD dose (−0.70 log10 IU/ml). […]

The conditions of series [3]: boceprevir recipients; cited from earlier work.

This is an account of results in US20150328280A1, “ALISPORIVR FOR TREATMENT OF HEPATITIS C VIRUS INFECTION” (priority 2011, published 2015).

Consider `C/C=C/C[C@@H](C)[C@@H](O)[C@H]1C(=O)N[C@@H](CC)C(=O)N(C)[C@H](C)C(=O)N(CC)[C@@H](C(C)C)C(=O)N[C@@H](C(C)C)C(=O)N(C)[C@@H](CC(C)C)C(=O)N[C@@H](C)C(=O)N[C@H](C)C(=O)N(C)[C@@H](CC(C)C)C(=O)N(C)[C@@H](CC(C)C)C(=O)N(C)[C@@H](C(C)C)C(=O)N1C` [alisporivir, Alisporivir], for which, in series [1], the “rates of achievement of sustained virologic response (SVR) versus peg-IFNα2a” value is reported as “superior”. For the same compound, the “decline in HCV RNA from baseline” value is −1.41 log10 IU/m1 in series [2] (400 mg BID) and −0.70 log10 IU/ml in series [2] (800 mg QD).
Consider `CC(C)(C)NC(=O)N[C@H](C(=O)N1C[C@H]2[C@@H]([C@H]1C(=O)NC(CC1CCC1)C(=O)C(N)=O)C2(C)C)C(C)(C)C` (stereo partly shown) [boceprevir], for which the “treatment-emergent anemia versus pegylated interferon and ribavirin recipients” value in series [3] is recorded as “significantly higher”.
